Measured values reported in US20160008277A1, “CO-PACKAGED DRUG PRODUCTS” (Lightlake Therapeutics Inc., priority 2014, published 2016).
Read-outs that look alike come from different tables or passages of the source.

Tests used:
[1] = for Cmax/D, GLSM: dose adjustment to 0.4 mg
overdose events = conditions: cited from earlier work
clinical [2] = conditions: human, plasma; for AUC(0-t): AUC0-t; for AUC(0-inf): AUC0-∞
opiate addicts = conditions: cited from earlier work
[3] = 2 mg nasal solution dose; cited from earlier work
[4] = Safety of intranasal naloxone in humans (Study 2): nasal irritation, adverse events, vital signs, ECG; type: in vivo, human
From the text: Specifically, the study had several objectives.
AEs were coded using the most recent version of the Medical Dictionary for Regulatory Activities (MedDRA) preferred terms and grouped by system, organ, class (SOC) designation. Separate summaries will be provided for the 5 study periods: after the administration of each dose of study drug up until the time of the next dose of study drug or clinic discharge. Listings of each individual AE including start date, stop date, severity, relationship, outcome, and duration were provided. Results are given below in Tables 12 and 13.

[5] = test system: patients with suspected narcotic overdose; conditions: cited from earlier work
heroin overdose = conditions: cited from earlier work
[6] = Safety of intranasal naloxone in humans (Study 1): nasal irritation, vital signs, ECG, clinical laboratory; type: in vivo, human
Experimental: These vital signs and temperature were also measured at screening, clinic intake, one day after each dosing session and at follow-up. […] AEs were recorded from the start of study-drug administration until clinic discharge. […] Clinical laboratory measurements were done prior to the first drug administration and on the day of clinic release.
Statistical Analysis of Adverse Events: AEs were coded using the most recent version of the Medical Dictionary for Regulatory Activities (MedDRA). Preferred terms and are grouped by system, organ, class (SOC) designation. AEs are presented as a listing including the start date, stop date, severity, relationship, outcome, and duration.

[7] = test system: suspected opiate overdose; conditions: cited from earlier work
clinical [8] = conditions: human, plasma
[9] = test system: suspected opiate overdose; conditions: cited from earlier work; remark: listed apart in the source
[10] = test system: patients with suspected opioid overdose; conditions: cited from earlier work
[11] = 400 μL, cited from earlier work
[12] = im, 0.4 mg, GLSM, 0.4 mg IM, no dose adjustment
[13] = other: intranasal, 2 mg, GLSM, 2 mg IN, no dose adjustment
[14] = other: intranasal, 2 mg, Mean, 2 mg IN
[15] = other: intranasal, 4 mg, GLSM, 4 mg IN, no dose adjustment
[16] = other: intranasal, 4 mg, Mean, 4 mg IN

## C=CCN1CC[C@]23c4c5ccc(O)c4O[C@H]2C(=O)CC[C@@]3(O)[C@H]1C5 [naloxone, 17-allyl-4,5a-epoxy-3,14-dihydroxymorphinan-6-one]
[1]; 0.4 mg IM
  λz, Mean: 0.593 h⁻¹
  Cmax/D, GLSM: 0.755 ng/mL
[1]; 2 mg IN
  λz, Mean: 0.588 h⁻¹
  Cmax/D, GLSM: 0.510 ng/mL
[1]; 2 mg IN versus IM
  Frel, Mean: 0.571
[1]; 4 mg IN versus IM
  Frel, Mean: 0.475
[1]; 4 mg IN
  Cmax/D, GLSM: 0.466 ng/mL
Overdose events; 399 overdose events where naloxone was used, participant-reported
  overdose events reversed: 89%
Overdose events; take-home naloxone
  participants reporting serious adverse effects: < 1%
Clinical [2]; [12]
  AUC(0-t): 1.35 ng·h/mL
  AUC(0-inf): 1.39 ng·h/mL
Clinical [2]; im, 0.4 mg, Mean, 0.4 mg IM
  AUC(0-t): 1.38 ng·h/mL
  AUC(0-inf): 1.42 ng·h/mL
  Tmax: 20.3 min
Clinical [2]; im, 0.4 mg, GLSM, 0.4 mg IM
  Tmax: 18.5 min
Clinical [2]; [13]
  AUC(0-t): 3.28 ng·h/mL
  AUC(0-inf): 3.32 ng·h/mL
Clinical [2]; [14]
  AUC(0-t): 3.41 ng·h/mL
  AUC(0-inf): 3.44 ng·h/mL
  Tmax: 20 min
Clinical [2]; other: intranasal, 2 mg, GLSM, 2 mg IN
  Tmax: 20 min
Clinical [2]; [15]
  AUC(0-t): 5.41 ng·h/mL
  AUC(0-inf): 5.47 ng·h/mL
Clinical [2]; [16]
  AUC(0-t): 5.63 ng·h/mL
  AUC(0-inf): 5.68 ng·h/mL
  Tmax: 18.4 min
Clinical [2]; other: intranasal, 4 mg, GLSM, 4 mg IN
  Tmax: 17.5 min
Opiate addicts
  effectiveness of nasal administration compared with intravenous route: as effective as the intravenous route
[3]
  Cmax (predicted by Wermeling): 3 to 5 ng/mL
  tmax (predicted by Wermeling): approximately 20 minutes
[4]; 0.4 mg Intramuscular Dose
  Dizziness (adverse events): 1
  Headache (adverse events): 1
  Nausea (adverse events): 1
[4]; 2 mg (20 mg/mL, one spray)
  Edema (events related to nasal irritation): 2
  Erythema (events related to nasal irritation): 4
  Nasal Pain (adverse events): 1
  Other (events related to nasal irritation): 1
  Total (events related to nasal irritation): 7
[4]; 4 mg (20 mg/mL, two sprays)
  Edema (events related to nasal irritation): 0
  Erythema (events related to nasal irritation): 1
  Other (events related to nasal irritation): 0
  Total (events related to nasal irritation): 1
[4]; 4 mg (40 mg/mL, one spray)
  Edema (events related to nasal irritation): 2
  Erythema (events related to nasal irritation): 1
  Other (events related to nasal irritation): 0
  Total (events related to nasal irritation): 3
[4]; 8 mg (40 mg/mL, two sprays)
  Edema (events related to nasal irritation): 1
  Erythema (events related to nasal irritation): 0
  Headache (adverse events): 1
  Other (events related to nasal irritation): 0
  Total (events related to nasal irritation): 1
[4]; 2 to 8 mg IN
  Relation of nasal irritation to the dose of naloxone given: did not appear to be positively related to the dose
[4]; Study 2
  QTcF prolongation: no evidence of QTcF prolongation
[4]; after naloxone administration, Study 2
  Vital signs, ECG, and clinical laboratory parameters: did not reveal any clinically noteworthy changes
[4]; nasal or intramuscular administration, Study 2
  Adverse events overall: few adverse events were reported
[5]; IN group (2 mg), 33 of 50
  Clinical response noted: 66%
[5]; IN group
  mean time between naloxone administration and clinical response: 12.9 min
  patients who received two doses of naloxone: 34%
[5]; IV group, 58 of 104
  Clinical response noted: 56%
[5]; IV group
  mean time between naloxone administration and clinical response: 8.1 min
  patients who received two doses of naloxone: 18%
Heroin overdose; 2 mg IM naloxone, 69/89
  rate of response within 10 minutes: 77.5%
Heroin overdose; 2 mg IN naloxone, 60/83
  rate of response within 10 minutes: 72.3%
Heroin overdose; IM naloxone
  patients administered supplementary naloxone: 4.5%
Heroin overdose; IN naloxone
  mean response time: 8.0 min
Heroin overdose; IV naloxone
  mean response time: 7.9 min
[6]; 2 mg IN dose
  Pharyngeal pain: One subject experienced mild transient (over 3 min) pharyngeal pain
[6]; IN naloxone at 2 and 4 mg to both nostrils
  Nasal irritation (erythema, edema, erosion, other sign in the nasal cavity): No erythema, edema, erosion, or other sign was observed
[6]; Study 1
  QTcF prolongation: no evidence of QTcF prolongation
[6]; after naloxone administration, Study 1
  Vital signs, ECG, and clinical laboratory parameters: did not reveal any clinically noteworthy changes
[7]; 2 mg IN, 43 of 52 patients who responded to naloxone by IN or IV
  patients responding to IN naloxone alone: 83%
[7]; 2 mg IN
  median time from administration of the IN naloxone to patient awakening: 3.0 min
  median time from arrival at patient side to awakening: 8.0 min
[7]; among responders to 2 mg IN alone
  patients requiring further doses of IV naloxone: 16%
Clinical [8]; female, im, 0.4 mg, 0.4 mg IM
  Cmax: 1.06 ng/mL
Clinical [8]; female, im, 0.4 mg, Tmax (median), 0.4 mg IM
  Tmax: 19.8 min
Clinical [8]; female, other: intranasal (IN), 4 mg, Tmax (median), One 40 mg/mL IN, Female
  Tmax: 30 min
Clinical [8]; female, other: intranasal (IN), 8 mg, Tmax (median), Two 40 mg/mL IN, Female
  Tmax: 17.4 min
Clinical [8]; female, other: intranasal, 2 mg, One 20 mg/mL IN, Female
  Cmax: 2.79 ng/mL
Clinical [8]; female, other: intranasal, 2 mg, Tmax (median), One 20 mg/mL IN, Female
  Tmax: 19.8 min
Clinical [8]; female, other: intranasal, 4 mg, One 40 mg/mL IN, Female
  Cmax: 5.12 ng/mL
Clinical [8]; female, other: intranasal, 4 mg, Two 20 mg/mL IN, Female
  Cmax: 6.62 ng/mL
Clinical [8]; female, other: intranasal, 4 mg, Tmax (median), Two 20 mg/mL IN, Female
  Tmax: 19.8 min
Clinical [8]; female, other: intranasal, 8 mg, Two 40 mg/mL IN, Female
  Cmax: 9.52 ng/mL
Clinical [8]; im, 0.4 mg, mean (% CV), 0.4 mg IM
  Cmax: 0.906 ng/mL
Clinical [8]; im, 0.4 mg, Tmax (median, range), 0.4 mg IM
  Tmax: 25.2 min
Clinical [8]; other: intranasal, 2 mg, mean (% CV), One Spray - 2 mg 20 mg/mL IN
  Cmax: 3.11 ng/mL
Clinical [8]; other: intranasal, 2 mg, Tmax (median, range), One Spray - 2 mg 20 mg/mL IN
  Tmax: 19.8 min
Clinical [8]; other: intranasal, 4 mg, mean (% CV), One Spray - 4 mg 40 mg/mL IN
  Cmax: 5.34 ng/mL
Clinical [8]; other: intranasal, 4 mg, mean (% CV), Two Sprays - 4 mg 20 mg/mL IN
  Cmax: 6.63 ng/mL
Clinical [8]; other: intranasal, 4 mg, Tmax (median, range), One Spray - 4 mg 40 mg/mL IN
  Tmax: 30 min
Clinical [8]; other: intranasal, 4 mg, Tmax (median, range), Two Sprays - 4 mg 20 mg/mL IN
  Tmax: 19.8 min
Clinical [8]; other: intranasal, 8 mg, mean (% CV), Two Sprays - 8 mg 40 mg/mL IN
  Cmax: 10.3 ng/mL
Clinical [8]; other: intranasal, 8 mg, Tmax (median, range), Two Sprays - 8 mg 40 mg/mL IN
  Tmax: 19.8 min
Clinical [8]; male, im, 0.4 mg, 0.4 mg IM
  Cmax: 0.792 ng/mL
Clinical [8]; male, im, 0.4 mg, Tmax (median), 0.4 mg IM
  Tmax: 30 min
Clinical [8]; male, other: intranasal (IN), 4 mg, Tmax (median), One 40 mg/mL IN, Male
  Tmax: 30 min
Clinical [8]; male, other: intranasal (IN), 8 mg, Tmax (median), Two 40 mg/mL IN, Male
  Tmax: 25.2 min
Clinical [8]; male, other: intranasal, 2 mg, One 20 mg/mL IN, Male
  Cmax: 3.35 ng/mL
Clinical [8]; male, other: intranasal, 2 mg, Tmax (median), One 20 mg/mL IN, Male
  Tmax: 19.8 min
Clinical [8]; male, other: intranasal, 4 mg, One 40 mg/mL IN, Male
  Cmax: 5.51 ng/mL
Clinical [8]; male, other: intranasal, 4 mg, Two 20 mg/mL IN, Male
  Cmax: 6.64 ng/mL
Clinical [8]; male, other: intranasal, 4 mg, Tmax (median), Two 20 mg/mL IN, Male
  Tmax: 15 min
Clinical [8]; male, other: intranasal, 8 mg, Two 40 mg/mL IN, Male
  Cmax: 10.9 ng/mL
[9]; 2 mg IM group
  patients with more than 10 spontaneous respirations per minute within 8 minutes: 82%
[9]; 2 mg IN group
  patients with more than 10 spontaneous respirations per minute within 8 minutes: 63%
[9]; IM group
  patients needing rescue naloxone: 13%
[9]; IN group
  patients needing rescue naloxone: 26%
[10]; naloxone 0.4 mg IV
  mean interval from EMS arrival to a respiratory rate of ≧10 breaths/min: 9.3 ± 4.2 min
[10]; naloxone 0.8 mg SQ
  mean interval from EMS arrival to a respiratory rate of ≧10 breaths/min: 9.6 ± 4.58 min
[11]; 8 mg IN
  mean Tmax: 20.4 min
[11]; 16 mg IN
  mean Tmax: 23.4 min
